Biological target: T1, full length AKT E17K (Homo sapiens, UniProt P31749, E17K)
T1 construct: host or cells: HEK-293 (ATCC CRL-1573)
Test: NanoBRET Target Engagement (TE) Assay
Assay type: cell-based
Settings: competitive displacement of tracer in cells, read-out: AKT1 E17K IC50
Procedure, shortened: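 Compound and tracer incubated 2 h before luminescence at donor 450 nm and acceptor 600 nm, with extracellular signal inhibited. EC50 by sigmoidal variable-slope regression.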

T1 sequence (P31749 whole entry E17K): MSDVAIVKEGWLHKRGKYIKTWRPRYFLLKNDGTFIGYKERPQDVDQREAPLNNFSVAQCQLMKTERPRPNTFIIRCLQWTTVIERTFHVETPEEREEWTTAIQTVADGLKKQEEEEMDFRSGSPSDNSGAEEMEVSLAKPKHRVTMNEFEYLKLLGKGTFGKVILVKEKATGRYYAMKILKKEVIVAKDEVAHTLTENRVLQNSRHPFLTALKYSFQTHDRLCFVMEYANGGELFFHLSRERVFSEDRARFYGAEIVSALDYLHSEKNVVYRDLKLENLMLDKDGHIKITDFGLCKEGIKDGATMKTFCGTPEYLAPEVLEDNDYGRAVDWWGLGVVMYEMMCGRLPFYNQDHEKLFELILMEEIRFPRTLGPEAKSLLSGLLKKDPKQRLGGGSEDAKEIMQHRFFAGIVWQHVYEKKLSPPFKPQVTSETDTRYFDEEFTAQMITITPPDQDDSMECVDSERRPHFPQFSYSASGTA

| IC50 | SMILES |
| --- | --- |
| < 15 nM | [2H]C([2H])(c1ccc(-n2c(-c3cccnc3N)nc3cc(C)c(C)nc32)cc1)N1CCC(Nc2ccnc(C#N)n2)CC1 [Example 504, 4-((1-((4-(2-(2-Aminopyridin-3-yl)-5,6-dimethyl-3H-imidazo[4,5-b]pyridin-3-yl)phenyl)methyl-d2)piperidin-4-yl)amino)pyrimidine-2-carbonitrile] |
| 60 to 600 nM | N#Cc1nccc(NC2CCN(Cc3ccc(-n4c(-c5cccnc5N)nc5cncnc54)cc3)CC2)n1 [Example 505, 4-((1-(4-(8-(2-Aminopyridin-3-yl)-9H-purin-9-yl)benzyl)piperidin-4-yl)amino)pyrimidine-2-carbonitrile] |
| 15 to 60 nM | N#Cc1nccc(NC2CCN(Cc3ccc(-n4c(-c5cccnc5N)nc5ccc(CO)nc54)cc3)CC2)n1 [Example 508, 4-((1-(4-(2-(2-Aminopyridin-3-yl)-5-(hydroxymethyl)-3H-imidazo[4,5-b]pyridin-3-yl)benzyl)piperidin-4-yl)amino)pyrimidine-2-carbonitrile] |
| < 15 nM | N#Cc1nccc(NC2CCN(Cc3ccc(-n4c(-c5cccnc5N)nc5ccc(CF)nc54)cc3)CC2)n1 [Example 509, 4-((1-(4-(2-(2-Aminopyridin-3-yl)-5-(fluoromethyl)-3H-imidazo[4,5-b]pyridin-3-yl)benzyl)piperidin-4-yl)amino)pyrimidine-2-carbonitrile] |
| < 15 nM | N#Cc1nccc(NC2CCN(Cc3ccc(-n4c(-c5cccnc5N)nc5ccc(N6CCCC6)nc54)cc3)CC2)n1 [Example 510, 4-((1-(4-(2-(2-Aminopyridin-3-yl)-5-(pyrrolidin-1-yl)-3H-imidazo[4,5-b]pyridin-3-yl)benzyl)piperidin-4-yl)amino)pyrimidine-2-carbonitrile] |
| < 15 nM | COc1cc(-c2ccc3nc(-c4cccnc4N)n(-c4ccc(CN5CCC(Nc6ccnc(C#N)n6)CC5)cc4)c3n2)ccn1 [Example 511, 4-((1-(4-(2-(2-Aminopyridin-3-yl)-5-(2-methoxypyridin-4-yl)-3H-imidazo[4,5-b]pyridin-3-yl)benzyl)piperidin-4-yl)amino)pyrimidine-2-carbonitrile] |
| < 15 nM | COc1cncc(-c2ccc3nc(-c4cccnc4N)n(-c4ccc(CN5CCC(Nc6ccnc(C#N)n6)CC5)cc4)c3n2)c1 [Example 512, 4-((1-(4-(2-(2-Aminopyridin-3-yl)-5-(5-methoxypyridin-3-yl)-3H-imidazo[4,5-b]pyridin-3-yl)benzyl)piperidin-4-yl)amino)pyrimidine-2-carbonitrile] |
| < 15 nM | C#Cc1ccc2nc(-c3cccnc3N)n(-c3ccc(CN4CCC(Nc5ccnc(C#N)n5)CC4)cc3)c2n1 [Example 513, 4-((1-(4-(2-(2-Aminopyridin-3-yl)-5-ethynyl-3H-imidazo[4,5-b]pyridin-3-yl)benzyl)piperidin-4-yl)amino)pyrimidine-2-carbonitrile] |
| < 15 nM | CC(=O)N(C)c1cccc(-c2ccc3nc(-c4cccnc4N)n(-c4ccc(CN5CCC(Nc6ccnc(C#N)n6)CC5)cc4)c3n2)c1 [Example 514, N-(3-(2-(2-Aminopyridin-3-yl)-3-(4-((4-((2-cyanopyrimidin-4-yl)amino)piperidin-1-yl)methyl)phenyl)-3H-imidazo[4,5-b]pyridin-5-yl)phenyl)-N-methylacetamide] |
| < 15 nM | COc1cnccc1-c1ccc2nc(-c3cccnc3N)n(-c3ccc(CN4CCC(Nc5ccnc(C#N)n5)CC4)cc3)c2n1 [Example 515, 4-((1-(4-(2-(2-Aminopyridin-3-yl)-5-(3-methoxypyridin-4-yl)-3H-imidazo[4,5-b]pyridin-3-yl)benzyl)piperidin-4-yl)amino)pyrimidine-2-carbonitrile] |
| < 15 nM | COc1ccc(-c2ccc3nc(-c4cccnc4N)n(-c4ccc(CN5CCC(Nc6ccnc(C#N)n6)CC5)cc4)c3n2)cn1 [Example 516, 4-((1-(4-(2-(2-Aminopyridin-3-yl)-5-(6-methoxypyridin-3-yl)-3H-imidazo[4,5-b]pyridin-3-yl)benzyl)piperidin-4-yl)amino)pyrimidine-2-carbonitrile] |
| < 15 nM | N#Cc1nccc(NC2CCN(Cc3ccc(-n4c(-c5cccnc5N)nc5ccc(-c6cccc(N)c6)nc54)cc3)CC2)n1 [Example 517, 4-((1-(4-(5-(3-Aminophenyl)-2-(2-aminopyridin-3-yl)-3H-imidazo[4,5-b]pyridin-3-yl)benzyl)piperidin-4-yl)amino)pyrimidine-2-carbonitrile] |
| < 15 nM | CC(C)C(=O)Nc1cccc(-c2ccc3nc(-c4cccnc4N)n(-c4ccc(CN5CCC(Nc6ccnc(C#N)n6)CC5)cc4)c3n2)c1 [Example 518, N-(3-(2-(2-Aminopyridin-3-yl)-3-(4-((4-((2-cyanopyrimidin-4-yl)amino)piperidin-1-yl)methyl)phenyl)-3H-imidazo[4,5-b]pyridin-5-yl)phenyl)isobutyramide] |
| 15 to 60 nM | CC(C)C(=O)Nc1cccc(-c2ccc3nc(-c4cccnc4NC(=O)C(C)C)n(-c4ccc(CN5CCC(Nc6ccnc(C#N)n6)CC5)cc4)c3n2)c1 [Example 519, N-(3-(3-(4-((4-((2-cyanopyrimidin-4-yl)amino)piperidin-1-yl)methyl)phenyl)-2-(2-isobutyramidopyridin-3-yl)-3H-imidazo[4,5-b]pyridin-5-yl)phenyl)isobutyramide] |
| < 15 nM | COC(=O)Nc1cccc(-c2ccc3nc(-c4cccnc4N)n(-c4ccc(CN5CCC(Nc6ccnc(C#N)n6)CC5)cc4)c3n2)c1 [Example 520, Methyl (3-(2-(2-aminopyridin-3-yl)-3-(4-((4-((2-cyanopyrimidin-4-yl)amino)piperidin-1-yl)methyl)phenyl)-3H-imidazo[4,5-b]pyridin-5-yl)phenyl)carbamate] |
| < 15 nM | CN(C)c1cccc(-c2ccc3nc(-c4cccnc4N)n(-c4ccc(CN5CCC(Nc6ccnc(C#N)n6)CC5)cc4)c3n2)c1 [Example 521, 4-((1-(4-(2-(2-Aminopyridin-3-yl)-5-(3-(dimethylamino)phenyl)-3H-imidazo[4,5-b]pyridin-3-yl)benzyl)piperidin-4-yl)amino)pyrimidine-2-carbonitrile] |
| 15 to 60 nM | CC(=O)N(C)C1CCN(c2cccc(-c3ccc4nc(-c5cccnc5N)n(-c5ccc(CN6CCC(Nc7ccnc(C#N)n7)CC6)cc5)c4n3)c2)CC1 [Example 522, N-(1-(3-(2-(2-Aminopyridin-3-yl)-3-(4-((4-((2-cyanopyrimidin-4-yl)amino)piperidin-1-yl)methyl)phenyl)-3H-imidazo[4,5-b]pyridin-5-yl)phenyl)piperidin-4-yl)-N-methylacetamide] |
| 15 to 60 nM | Cc1cc(F)ccc1-c1ccc2nc(-c3cccnc3N)n(-c3ccc(CN4CCC(Nc5ccnc(C#N)n5)CC4)cc3)c2n1 [Example 523, 4-((1-(4-(2-(2-Aminopyridin-3-yl)-5-(4-fluoro-2-methylphenyl)-3H-imidazo[4,5-b]pyridin-3-yl)benzyl)piperidin-4-yl)amino)pyrimidine-2-carbonitrile] |
| 600 to 10000 nM | N#Cc1nccc(NC2CCN(Cc3ccc(-n4c(-c5cccnc5N)nc5ccc(-c6ccc(F)cc6C(N)=O)nc54)cc3)CC2)n1 [Example 524, 2-(2-(2-aminopyridin-3-yl)-3-(4-((4-((2-cyanopyrimidin-4-yl)amino)piperidin-1-yl)methyl)phenyl)-3H-imidazo[4,5-b]pyridin-5-yl)-5-fluorobenzamide] |
| 15 to 60 nM | N#Cc1nccc(NC2CCN(Cc3ccc(-n4c(-c5cccnc5N)nc5ccc(-c6ccc(F)cc6C#N)nc54)cc3)CC2)n1 [Example 525, 4-((1-(4-(2-(2-Aminopyridin-3-yl)-5-(2-cyano-4-fluorophenyl)-3H-imidazo[4,5-b]pyridin-3-yl)benzyl)piperidin-4-yl)amino)pyrimidine-2-carbonitrile] |
| 600 to 10000 nM | N#Cc1nccc(NC2CCN(Cc3ccc(-n4c(-c5cccnc5N)nc5ccc(-c6ccc(F)cc6C(F)(F)F)nc54)cc3)CC2)n1 [Example 526, 4-((1-(4-(2-(2-Aminopyridin-3-yl)-5-(4-fluoro-2-(trifluoromethyl)phenyl)-3H-imidazo[4,5-b]pyridin-3-yl)benzyl)piperidin-4-yl)amino)pyrimidine-2-carbonitrile] |
| < 15 nM | Cc1ccccc1-c1ccc2nc(-c3cccnc3N)n(-c3ccc(CN4CCC(Nc5ccnc(C#N)n5)CC4)cc3)c2n1 [Example 527, 4-((1-(4-(2-(2-Aminopyridin-3-yl)-5-(o-tolyl)-3H-imidazo[4,5-b]pyridin-3-yl)benzyl)piperidin-4-yl)amino)pyrimidine-2-carbonitrile] |
| < 15 nM | Cc1cccc(-c2ccc3nc(-c4cccnc4N)n(-c4ccc(CN5CCC(Nc6ccnc(C#N)n6)CC5)cc4)c3n2)c1 [Example 528, 4-((1-(4-(2-(2-Aminopyridin-3-yl)-5-(m-tolyl)-3H-imidazo[4,5-b]pyridin-3-yl)benzyl)piperidin-4-yl)amino)pyrimidine-2-carbonitrile] |
| < 15 nM | Cc1ccc(-c2ccc3nc(-c4cccnc4N)n(-c4ccc(CN5CCC(Nc6ccnc(C#N)n6)CC5)cc4)c3n2)cc1 [Example 529, 4-((1-(4-(2-(2-Aminopyridin-3-yl)-5-(p-tolyl)-3H-imidazo[4,5-b]pyridin-3-yl)benzyl)piperidin-4-yl)amino)pyrimidine-2-carbonitrile] |
| 15 to 60 nM | N#Cc1nccc(NC2CCN(Cc3ccc(-n4c(-c5cccnc5N)nc5ccc(-c6cccc(C(F)(F)F)c6)nc54)cc3)CC2)n1 [Example 530, 4-((1-(4-(2-(2-Aminopyridin-3-yl)-5-(3-(trifluoromethyl)phenyl)-3H-imidazo[4,5-b]pyridin-3-yl)benzyl)piperidin-4-yl)amino)pyrimidine-2-carbonitrile] |
| < 15 nM | CC(C)OC(=O)c1ccc2nc(-c3cccnc3N)n(-c3ccc(CN4CCC(Nc5ccnc(C#N)n5)CC4)cc3)c2n1 [Example 531, Isopropyl 2-(2-aminopyridin-3-yl)-3-(4-((4-((2-cyanopyrimidin-4-yl)amino)piperidin-1-yl)methyl)phenyl)-3H-imidazo[4,5-b]pyridine-5-carboxylate] |

— patent publication US12209087B2, “AKT1 modulators” (Alterome Therapeutics, Inc., priority 2022, dated 2025)
